Experiments:
[1] = tested on: AcTub levels in OA-treated primary mouse cortical neurons; experiment: Okadaic acid (OA) assay, AcTub ELISA in primary mouse cortical neurons; format: cell-based; details: OA 15 nM, 8 h, compound 1 and 10 μM
Experimental: To further evaluate the activity of Class I alkyne derivatives and hybrid compounds, several compounds were also assessed for their ability to compensate for MT deficits in primary neuron cultures that were treated with the phosphatase inhibitor, okadaic acid (OA). As previously described,[11] treatment of rodent neurons with OA results in tau hyperphosphorylation and MT collapse that presumably results, at least in part, from tau disengagement from MTs. Co-treatment of neurons with Class I TPDs, such as 1, along with OA prevents this MT collapse, with a resulting normalization of MT structure and neuronal processes which can be observed upon visual inspection of the neurons or through an assessment of neuronal AcTub levels, while Class II TPDs are generally unable to provide meaningful compensation of MT deficits, especially when tested at higher (i.e., 10 μM) compound concentration.[11],[12]
Figure 4 ELISA determination of AcTub levels in homogenates from primary rat cortical neurons treated with either vehicle, or OA (15 nM) in the presence of vehicle or TPD 1, 8, 9 (A); and primary mouse cortical neurons treated with vehicle, or OA (15 nM) in the presence of vehicle or TPD 1, 24, 45, 46, 53, 54 (B). Error bars represent SEM, with ***, p < 0.001 relative to vehicle treatment in the absence of OA as determined by one-way ANOVA.
Compound-induced changes in acetylated-tubulin and α-tubulin in QBI293 cells or primary mouse or rat neurons were as previously described.[11],[12] For compound testing, QBI293 cells were plated at a density of 2 × 10^5 cells/well in 12-well plates. The plated cells were incubated overnight, after which the medium was aspirated and fresh medium containing vehicle (0.25–0.3% DMSO) or test compound was added. Test compounds were prepared as 4–20 mM stock solutions in 100% DMSO, and these were diluted in culture medium prior to addition to the QBI293 cells. After 4 h incubation, whole-cell extracts were prepared from the QBI293 cells as described[11] and the supernatant fraction from each sample was assessed for protein content by bicinchoninic acid (BCA) assay. The amount of acetyl-tubulin (AcTub) and α-tubulin (αTub) within the cell extract samples was quantified using specific enzyme-linked immunosorbent assays (ELISA), as previously described.[11] Acetyl-tubulin levels were determined in a similar manner in rat or mouse cortical neuron cultures in which embryonic dissociated cortical neurons were plated at 3 × 10^5 cells/well in poly-D-lysine-coated 12-well plates, essentially as previously described.[11] The neurons were allowed to grow for 10 days before they were treated for 8 h with 15 nM okadaic acid in the presence or absence of test compound prepared as described above, or vehicle (0.25% DMSO). Culture homogenates were prepared for the determination of AcTub levels by ELISA as previously described.[11]
VehicleVehicleVehicleVehicle25 (1 µM)
Figure S2. Assessment of AcTub levels in primary mouse cortical neurons treated with vehicle,
(1 picture or pasted object on this page, not shown here)

[2] = Brain-to-plasma ratio in mice; format: in vivo; details: mouse, ip, 1 h post-administration, i.p. 1.5 mg/kg, read-out: brain-to-plasma ratio (B/P)
[3] = Plasma pharmacokinetics in CD-1 mice; format: in vivo, mouse; details: i.v. 5 mg/kg
Experimental: Studies to determine the pharmacokinetic properties of compounds 53 and 60 were conducted at Touchstone Biosciences (Plymouth Meeting, PA). For the determination of plasma pharmacokinetics, three male CD-1 mice (2–3 months of age) were injected i.v. (tail vein) with test compound at a dose of 5 mg/kg in a solution of 10% DMSO, 40% polyethylene glycol, and 50% water, and another three male CD-1 mice received oral gavage dosing of 60 formulated as above at a dose of 20 mg/kg. Blood samples were collected from the saphenous or submandibular veins at multiple time points after dosing and collected in Greiner MiniCollect K2EDTA tubes. Compound levels in plasma were determined by LC-MS/MS, using protocols similar to those previously described.[16],[22]

[4] = tested on: de-tyrosinated α-tubulin (GluTub) in brain of WT mice; experiment: Brain PD: Glu-tubulin in brain tissue after compound treatment; format: in vivo, mouse; details: WT CD-1 mice, 1 mg/kg i.p. once daily for two consecutive days
Experimental: Finally, to evaluate target engagement in the CNS, PD studies were conducted to determine compound-dependent elevations in the stable MT marker, de-tyrosinated α-tubulin (GluTub), in brain homogenates from compound-treated WT mice.
All animal protocols were approved by the University of Pennsylvania Institutional Animal Care and Use Committee (IACUC). […] Compounds were diluted from 20 or 40 mM DMSO stock solutions into 30% Kolliphor EL (Sigma-Aldrich) phosphate-buffered saline, pH 7.4. After 4 h following the second injection, mice were euthanized and cortices and hippocampi were isolated from each brain and placed in 0.2 mL of ice-cold radioimmunoprecipitation assay (RIPA) buffer (50 mM Tris, 150 mM NaCl, 5 mM EDTA, 0.5% sodium deoxycholate, 1% NP-40, 0.1% sodium dodecyl sulfate (SDS), pH 8.0) containing protease inhibitor (PI) cocktail (Sigma-Aldrich), 1 mM phenylmethylsulfonyl fluoride (PMSF) (Sigma-Aldrich), and 3 μM trichostatin A (TSA) (Sigma-Aldrich). The brain samples were homogenized with a handheld battery-operated mixer and subsequently sonicated. After centrifugation at 100,000g for 30 min at 4 °C, supernatant samples were transferred to a new tube and the pellets were resuspended in 0.15 mL of RIPA buffer and again homogenized, sonicated, and centrifuged. The supernatant from the second centrifugation was pooled with that from the first. The combined supernatant samples were assessed for protein concentration using a BCA assay (Thermo Fisher Scientific), and equal protein amounts from each brain sample underwent separation by 10% sodium dodecyl sulfate polyacrylamide gel electrophoresis (SDS-PAGE) followed by transfer onto nitrocellulose membranes essentially as previously described.[11] […] Incubation with infrared dye-conjugated secondary antibodies and subsequent imaging and quantification of the blots on the Odyssey imaging system were as described.[11]

C[C@@H](Nc1c(-c2c(F)cc(C#CCCO)cc2F)c(Cl)nc2ncnn12)C(C)(C)C [Compound 53, (R)-4-(4-(5-Chloro-7-((3,3-dimethylbutan-2-yl)amino)-[1,2,4]triazolo[1,5-a]pyrimidin-6-yl)-3,5-difluorophenyl)but-3-yn-1-ol]
prevention/correction of OA-induced MT collapse (AcTub levels) [1]: can prevent the OA-induced MT collapse
Kp at 1 h [2]: ~0.5
half-life (T1/2) [3]: relatively prolonged half-life
brain GluTub (GluTub-to-total α-Tub ratio) relative to vehicle-treated mice [4]: significant elevations in brain GluTub

Source: publication PMC9841533, “Microtubule-Stabilizing 1,2,4-Triazolo[1,5-a]pyrimidines as Candidate Therapeutics for Neurodegenerative Disease: Matched Molecular Pair Analyses and Computational Studies Reveal New Structure–Activity Insights” (Journal of Medicinal Chemistry, 2022)
